These results are taken from patent US10544125B2, “Process for preparing an anti-cancer agent, 1-((4-(4-fluoro-2-methyl-1H-indol-5-yloxy)-6-methoxyquinolin-7-yloxy)methyl)cyclopropanamine, its crystalline form and its salts” (Advenchen Pharmaceuticals, LLC, priority 2015, dated 2020).

Converted amounts (≈) assume the structure as drawn. Where a name gives a salt, the structure may show the parent alone.

In general, IC50 refers to the midpoint of a concentration-inhibition curve. Read a high IC50 as a need for much substance. By solubility is commonly meant the dissolved amount per volume that the medium holds.

The subject of one series is BEL7404 (liver). The series is described as follows: In vitro MTT (proliferation) assay. In kind it is cell-based. Conditions: BEL7404 cancer cell line. As to the method:
(§1) In vitro MTT (proliferation) assay was performed with compound from above examples to give following inhibition results: […]

Another series has as its system HCT1 16 (colon). Kind of series: In vitro MTT (proliferation) assay. In kind it is cell-based. As to conditions: HCT1 16 cancer cell line. As to the method:
as §1

The next series concerns Hela (cervical). The series is described as follows: In vitro MTT (proliferation) assay. In kind it is cell-based. Conditions: Hela cancer cell line. As to the method: as §1
The next series deals with MDA-MB-231 (breast). Kind of series: In vitro MTT (proliferation) assay. In kind it is cell-based. Conditions: MDA-MB-231 cancer cell line. As to the method:
as §1

A further series deals with MKN45 (gastric). The series is described as follows: In vitro MTT (proliferation) assay. Conditions: MKN45 cancer cell line. In kind it is cell-based. As to the method: as §1
Another series relates to NC1-H157 (lung). The series is described as follows: In vitro MTT (proliferation) assay. Conditions: NC1-H157 cancer cell line. In kind it is cell-based. As to the method: as §1
Another series concerns PANC-1 (pancreatic). Kind of series: In vitro MTT (proliferation) assay. In kind it is cell-based. Conditions: PANC-1 cancer cell line. As to the method: as §1
A further series deals with PC-3 (prostate). The series is described as follows: In vitro MTT (proliferation) assay. As to conditions: PC-3 cancer cell line. The class given is cell-based. As to the method:
as §1

For a further series, the system named is SKOV3 (ovarian). The series is described as follows: In vitro MTT (proliferation) assay. The class given is cell-based. Conditions: SKOV3 cancer cell line. As to the method:
as §1

Another series relates to SW579 (thyroid). Kind of series: In vitro MTT (proliferation) assay. In kind it is cell-based. Conditions: SW579 cancer cell line. As to the method:
as §1

For a further series, the system named is Saos-2 (sarcoma). The series is described as follows: In vitro MTT (proliferation) assay. The class given is cell-based. As to conditions: Saos-2 cancer cell line. As to the method: as §1
In a further series the test system is Ishikawa (endometrial). Kind of series: In vitro MTT (proliferation) assay. The class given is cell-based, human. As to conditions: Ishikawa cancer cell line. As to the method: as §1
Series [1] can be described thus: Conventional water solubility test. The class given is physicochemical. The text has this: Conventional water solubility test has been conducted to give the following results: […]
A further series relates to laser-induced CNV. Kind of series: Mouse model of laser-induced choroidal neovascularization (CNV). The class given is in vivo, C57 BL/6 mice. As to conditions: for reduction in average size of laser-induced CNV: C57 BL/6 mice, day -1 to day 10, FIG. 18. As to the method:
A mouse model of laser-induced choroidal neovascularization (CNV)
(1) Experiments were performed in C57 BL/6 mice at 10 to 12 weeks of age. Laser CNV was induced with a 532 nm diode laser mounted on a slit lamp, using […], 100 ms duration and 100 mW laser energy. Each eye received 4 laser burns. Stock solution of AL3818-H1 was made by dissolving the compound in water to 25 mg/ml concentration, and further diluted to working solution of either 250 or 25 μg/ml in water. Mice were orally gavaged at dosage of 2.5 or 0.25 mg/kg body weight, in volume of 200 μl per 20 gram of body weight, once every day starting at one day before laser treatment until 10 days afterwards. Control group mice will receive gavage with water which is used to dissolve the compound. By the end of the experiment, mice were subjected to fluorescence angiography to exclude the spots with hemorrhage and other mechanic injuries caused by the procedures. Mice were sacrificed and CNV size was measured by immunostaining of RPE/choroid flat mount co-stained with FITC-conjugated isolectin B4 and anti-ICAM2 antibody. For groups of control, 0.25 mg/kg and 2.5 mg/kg, we examined 43, 44 and 49 eyes on RPE/choroid flat mount. After immunostaining, images were taken on a Zeiss fluorescence microscope. CNV size was measured in Image J software. […] (2) The potential synergistic or additive effects between AL3818-M and anti-VEGF antibody was also studied. Immediately after laser burn, mice were treated with a monoclonal VEGF neutralizing antibody from R&D Systems (mAb AF564) at 1 μg dosage by intravitreal injection. We had 4 experimental groups: control (treated with water), AL3818-M, anti-VEGF, and AL3818-M+anti-VEGF. A total of 75 laser spots were analyzed. Mice in control or AL3818-M alone group received the intravitreal injection of saline in the same 2 μl volume.

Regarding `COc1cc2c(Oc3ccc4[nH]c(C)cc4c3F)ccnc2cc1OCC1(N)CC1` [AL3818-F, 1-((4-(4-Fluoro-2-methyl-1H-indol-5-yloxy)-6-methoxyquinolin-7-yloxy)methyl)cyclopropanamine], the IC50 came out at 0.93 µM in the series with BEL7404 (liver); 3.25 µM with HCT1 16 (colon) (MTT (proliferation) assay); 3.23 µM in the series on Hela (cervical); 5.56 µM with MDA-MB-231 (breast) (MTT (proliferation) assay); 3.11 µM in the series on MKN45 (gastric); 1.83 µM in the series with NC1-H157 (lung). In addition, the IC50 in the series with PANC-1 (pancreatic) (MTT (proliferation) assay) was 1.34 µM; with PC-3 (prostate) it was 5.11 µM; in the series on SKOV3 (ovarian) (MTT (proliferation) assay) it was 5.97 µM; in the series with SW579 (thyroid), 1 µM; in the series on Saos-2 (sarcoma) (MTT (proliferation) assay) it was 5.13 µM; with Ishikawa (endometrial) it was 1.04 µM. Besides, the water solubility in series [1] worked out at 20 µg/mL (≈ 49.1 µM).
Consider `COc1cc2c(Oc3ccc4[nH]c(C)cc4c3F)ccnc2cc1OCC1(N)CC1` [AL3818-H1, 1-((4-(4-Fluoro-2-methyl-1H-indol-5-yloxy)-6-methoxy-quinolin-7-yloxy)-methyl)cyclopropanamine Bishydrochloride Acid Salt], for which the IC50 came out at 2.75 µM with BEL7404 (liver); 3.45 µM in the series on HCT1 16 (colon) (Homo sapiens, HCT-116, MTT (proliferation) assay); 3.7 µM in the series on Hela (cervical) (Homo sapiens, HeLa); 10.2 µM in the series on MDA-MB-231 (breast) (Homo sapiens, MDA-MB-231, MTT (proliferation) assay); 1.77 µM with MKN45 (gastric); 7.18 µM in the series with NC1-H157 (lung). Also, the IC50 in the series with PANC-1 (pancreatic) (Homo sapiens, PANC-1, MTT (proliferation) assay) was 1.58 µM; in the series on PC-3 (prostate), 5.53 µM; in the series on SKOV3 (ovarian) (Homo sapiens, SK-OV-3, MTT (proliferation) assay) it was 5.34 µM; in the series with SW579 (thyroid), 2.33 µM; in the series with Saos-2 (sarcoma) (Homo sapiens, SAOS-2, MTT (proliferation) assay) it was 4.68 µM; with Ishikawa (endometrial), 5.67 µM. Besides, the “reduction in average size of laser-induced CNV” value with laser-induced CNV (oral gavage 0.25 mg/kg body weight once daily) and in the series on laser-induced CNV (oral gavage 2.5 mg/kg body weight once daily) was about 70% throughout. Also, in [1], the water solubility stood at 6000 µg/mL.
Consider `COc1cc2c(Oc3ccc4[nH]c(C)cc4c3F)ccnc2cc1OCC1(N)CC1.Cl.Cl.O` [AL3818-H2, 1-((4-(4-Fluoro-2-methyl-1H-indol-5-yloxy)-6-methoxy-quinolin-7-yloxy)methyl)cyclopropanamine bishydrochloridehydrate Acid Salt], for which the IC50 with BEL7404 (liver) worked out at 1.74 µM; with HCT1 16 (colon) (MTT (proliferation) assay), 3.34 µM; in the series on Hela (cervical) it was 4.07 µM; in the series on MDA-MB-231 (breast) (MTT (proliferation) assay), 5.71 µM; in the series on MKN45 (gastric), 3.9 µM; in the series on NC1-H157 (lung) it was 2.29 µM. Also, the IC50 is 1.55 µM in the series with PANC-1 (pancreatic) (MTT (proliferation) assay); 3.88 µM in the series on PC-3 (prostate); 5.7 µM in the series with SKOV3 (ovarian) (MTT (proliferation) assay); 1.29 µM with SW579 (thyroid); 4.98 µM in the series on Saos-2 (sarcoma) (MTT (proliferation) assay); 1.56 µM in the series with Ishikawa (endometrial). The same compound returned a water solubility in series [1] of 7000 µg/mL.
As for `COc1cc2c(Oc3ccc4[nH]c(C)cc4c3F)ccnc2cc1OCC1(N)CC1.O=C(O)/C=C\C(=O)O.O=C(O)/C=C\C(=O)O` [AL3818-M, 1-((4-(4-Fluoro-2-methyl-1H-indol-5-yloxy)-6-methoxy-quinolin-7-yloxy)-methyl)cyclopropanamine Bismaleic Acid Salt], the IC50 amounted to 1.15 µM in the series on BEL7404 (liver); 4.62 µM with HCT1 16 (colon) (MTT (proliferation) assay); 3.94 µM in the series with Hela (cervical); 5.37 µM in the series on MDA-MB-231 (breast) (MTT (proliferation) assay); 2.65 µM with MKN45 (gastric); 2.02 µM with NC1-H157 (lung). In addition, the IC50 was 1.15 µM in the series with PANC-1 (pancreatic) (MTT (proliferation) assay); 3.62 µM in the series with PC-3 (prostate); 6.56 µM in the series on SKOV3 (ovarian) (MTT (proliferation) assay); 1.15 µM with SW579 (thyroid); 5.49 µM with Saos-2 (sarcoma) (MTT (proliferation) assay); 1.34 µM in the series on Ishikawa (endometrial). Besides, the “reduction in laser CNV as compared to the control group” value with laser-induced CNV (0.15 mg/kg together with 1 μg anti-VEGF antibody (mAb AF564) intravitreal, P<0.01, FIG. 19) is recorded as about 30%. The compound further gave a solubility in series [1] of 500 µg/mL.
`COc1cc2c(Oc3ccc4[nH]c(C)cc4c3F)ccnc2cc1OCC1(N)CC1.O=C(O)CCC(=O)O` [AL3818-S, 1-((4-(4-Fluoro-2-methyl-1H-indol-5-yloxy)-6-methoxy-quinolin-7-yloxy)methyl)cyclopropanamine Succinic Acid Salt]: the IC50 with BEL7404 (liver) is 1.43 µM; with HCT1 16 (colon) (MTT (proliferation) assay) it was 3.94 µM; in the series with Hela (cervical), 4.66 µM; with MDA-MB-231 (breast) (MTT (proliferation) assay), 6.1 µM; in the series on MKN45 (gastric), 4.16 µM; in the series with NC1-H157 (lung), 2.28 µM. For the same compound, the concentration for half-maximal inhibition (IC50) with PANC-1 (pancreatic) (MTT (proliferation) assay) is 1.24 µM; with PC-3 (prostate), 4.41 µM; with SKOV3 (ovarian) (MTT (proliferation) assay), 7.6 µM; in the series with SW579 (thyroid), 2.61 µM; in the series with Saos-2 (sarcoma) (MTT (proliferation) assay), 5.68 µM; in the series with Ishikawa (endometrial), 1.32 µM. Moreover, in series [1], the solubility came out at 100 µg/mL.
